Test results published in US10874104B2, “Pesticidally active pryazole derivatives” (SYNGENTA PARTICIPATIONS AG, priority 2016, dated 2020).
Where two headings read alike, the source gives them in different places.

Experiments:
Format in all cases: in vivo
[1] = tested on: Plutella xylostella (Diamond Back Moth); assay: Plutella xylostella (diamond back moth), feeding/contact activity on artificial diet, mortality; settings: 120 h
Description: Plutella xylostella (Diamond Back Moth): Feeding/Contact Activity
24-well microtiter plates with artificial diet were treated with aqueous test solutions prepared from 10′000 ppm DMSO stock solutions by pipetting. After drying, the plates were infested with L2 larvae (10 to 15 per well). The samples were assessed for mortality 5 days after infestation.

[2] = tested on: Spodoptera littoralis (Egyptian Cotton Leaf Worm); assay: Spodoptera littoralis (Egyptian cotton leaf worm), feeding/contact activity, mortality; settings: 72 h
Description: Spodoptera littoralis (Egyptian Cotton Leaf Worm): Feeding/Contact Activity
(§1) Cotton leaf discs were placed onto agar in 24-well microtiter plates and sprayed with aqueous test solutions prepared from 10′000 ppm DMSO stock solutions. After drying the leaf discs were infested with five L1 larvae. The samples were assessed for mortality 3 days after infestation.

[3] = tested on: Tetranychus urticae (Two-Spotted Spider Mite); assay: Tetranychus urticae (two-spotted spider mite), feeding/contact activity, mortality; settings: 192 h, application rate 200 ppm, mixed population (mobile stages), 8 days after infestation
Description: Tetranychus urticae (Two-Spotted Spider Mite): Feeding/Contact Activity
as §1, with “Bean” for “Cotton”, “on” for “were placed onto”, “were” for “and”, “a mite population of mixed ages.” for “five L1 larvae.”, “on mixed population (mobile stages) 8” for “3”

[4] = tested on: Euschistus heros (Neotropical Brown Stink Bug); assay: Euschistus heros (neotropical brown stink bug), feeding/contact activity, mortality; settings: 120 h
Description: Euschistus heros (Neotropical Brown Stink Bug): Feeding/contact activity
Soybean leaves on agar in 24-well microtiter plates were sprayed with aqueous test solutions prepared from 10′000 ppm DMSO stock solutions. After drying the leaves were infested with N2 nymphs. The samples were assessed for mortality 5 days after infestation.

[5] = tested on: Myzus persicae (Green Peach Aphid); assay: Myzus persicae (green peach aphid), feeding/contact activity, mortality; settings: 144 h, application rate 200 ppm, aphid population of mixed ages, 6 days after infestation
Description: Myzus persicae (Green Peach Aphid): Feeding/Contact Activity
(§2) Sunflower leaf discs were placed onto agar in a 24-well microtiter plate and sprayed with aqueous test solutions prepared from 10′000 ppm DMSO stock solutions. After drying, the leaf discs were infested with an aphid population of mixed ages. The samples were assessed for mortality 6 days after infestation.

[6] = tested on: Diabrotica balteata (Corn Root Worm); assay: Diabrotica balteata (corn root worm), sprayed maize sprouts on agar, mortality; settings: 96 h
Description: Diabrotica balteata (Corn Root Worm):
Maize sprouts placed onto an agar layer in 24-well microtiter plates were treated with aqueous test solutions prepared from 10′000 ppm DMSO stock solutions by spraying. After drying, the plates were infested with L2 larvae (6 to 10 per well). The samples were assessed for mortality 4 days after infestation.

[7] = tested on: Thrips tabaci (Onion Thrips); assay: Thrips tabaci (onion thrips), feeding/contact activity, mortality; settings: 144 h
Description: Thrips tabaci (Onion Thrips): Feeding/Contact Activity
as §2, with “on” for “onto”, “in” for “in a”, “plates” for “plate”, “drying” for “drying,”, “a thrips” for “an aphid”

[8] = application rate 200 ppm, L2 larvae on artificial diet, 5 days after infestation, read-out: mortality
[9] = application rate 200 ppm, L1 larvae, 3 days after infestation, read-out: mortality
[10] = application rate 200 ppm, N2 nymphs, 5 days after infestation, read-out: mortality
[11] = application rate 200 ppm, L2 larvae, 4 days after infestation, read-out: mortality
[12] = application rate 200 ppm, thrips population of mixed ages, 6 days after infestation, read-out: mortality

Measured: mortality at 200 ppm

Cn1nc(C(F)(F)C(F)(F)F)c(OC(F)F)c1-n1cc(-c2cnc(Cl)c(C(=O)NC3(C#N)CC3)c2)cn1 [Compound 21]
≥ 80%: [1]; [8] | [2]; [9] | [3] | [4]; [10] | [5] | [6]; [11]

CN(C(=O)c1cc(-c2cnn(-c3c(OC(F)F)c(C(F)(F)C(F)(F)F)nn3C)c2)ccc1C#N)C1(C#N)CC1 [Compound 61]
≥ 80%: [6]; [11]

C#Cc1c(C(F)(F)C(F)(F)F)nn(C)c1-n1cc(-c2ccc(Cl)c(C(=O)NC3CC3)c2)cn1 [Compound 18]
≥ 80%: [2]; [9]

COc1c(C(F)(F)C(F)(F)F)nn(C)c1-n1cc(-c2ccc(Cl)c(C(=O)NC3CC3)c2)cn1 [Compound 6]
≥ 80%: [1]; [8] | [2]; [9] | [3] | [4]; [10] | [7]; [12] | [6]; [11]

Cn1nc(C(F)(F)C(F)(F)F)c(SC2CC2)c1-n1cc(-c2ccc(Cl)c(C(=O)NC3CC3)c2)cn1 [Compound 20]
≥ 80%: [1]; [8] | [2]; [9] | [3] | [4]; [10] | [5] | [7]; [12] | [6]; [11]

Cn1nc(C(F)(F)C(F)(F)F)c(OC(F)(F)C(F)C(F)(F)F)c1-n1cc(-c2ccc(Cl)c(C(=O)NC3(C#N)CC3)c2)cn1 (stereo not shown) [Compound 43]
≥ 80%: [1]; [8] | [2]; [9] | [7]; [12] | [6]; [11]

CCOc1c(C(F)(F)C(F)(F)F)nn(C)c1-n1cc(-c2ccc(Cl)c(C(=O)NC3(C#N)CC3)c2)cn1 [Compound 38]
≥ 80%: [1]; [8] | [2]; [9] | [3] | [4]; [10] | [6]; [11]

Cn1nc(C(F)(F)C(F)(F)F)c(OC(F)F)c1-n1cc(-c2ccc(Cl)c(C(=O)NC3CC3)c2)nn1 [Compound 65]
≥ 80%: [6]; [11]

Cn1nc(C(F)(F)C(F)(F)F)c(OC(F)(F)C(F)C(F)(F)F)c1-n1cc(-c2ccc(Cl)c(C(=O)NCc3ccccc3)c2)cn1 (stereo not shown) [Compound 57]
≥ 80%: [5]

Cn1nc(C(F)(F)C(F)(F)F)c(OC(F)F)c1-n1cc(-c2ccc(Cl)c(C(=O)NC3(C#N)CC3)c2)nn1 [Compound 64, 2-Chloro-N-(1-cyanocyclopropyl)-5-[1-[4-(difluoromethoxy)-2-methyl-5-(1,1,2,2,2-pentafluoroethyl)pyrazol-3-yl]triazol-4-yl]benzamide]
≥ 80%: [6]; [11]

Cn1nc(C(F)(F)C(F)(F)F)c(OC(F)(F)C(F)C(F)(F)F)c1-n1cc(-c2ccc(Cl)c(C(=O)NC3CC3)c2)cn1 (stereo not shown) [Compound 46]
≥ 80%: [1]; [8] | [2]; [9] | [7]; [12] | [6]; [11]

Cn1nc(C(F)(F)C(F)(F)F)c(S(=O)(=O)C2CC2)c1-n1cc(-c2ccc(Cl)c(C(=O)NC3(C#N)CC3)c2)cn1 [Compound 35]
≥ 80%: [1]; [8] | [2]; [9] | [3] | [4]; [10] | [7]; [12] | [6]; [11]

C#Cc1c(C(F)(F)C(F)(F)F)nn(C)c1-n1cc(-c2ccc(Cl)c(C(=O)NC3(C#N)CC3)c2)cn1 [Compound 17]
≥ 80%: [1]; [8] | [3] | [4]; [10] | [5] | [6]; [11]

Cn1nc(C(F)(F)C(F)(F)F)c(OC(F)(F)C(F)F)c1-n1cc(-c2ccc(Cl)c(C(=O)NC3(C#N)CC3)c2)cn1 [Compound 37]
≥ 80%: [1]; [8] | [2]; [9] | [3] | [4]; [10] | [7]; [12] | [6]; [11]

C=Cc1c(C(F)(F)C(F)(F)F)nn(C)c1-n1cc(-c2ccc(Cl)c(C(=O)NC3(C#N)CC3)c2)cn1 [Compound 15, 2-Chloro-N-(1-cyanocyclopropyl)-5-[1-[2-methyl-5-(1,1,2,2,2-pentafluoroethyl)-4-vinyl-pyrazol-3-yl]pyrazol-4-yl]benzamide]
≥ 80%: [1]; [8] | [2]; [9] | [3] | [4]; [10] | [5] | [6]; [11]

Cn1nc(C(F)(F)C(F)(F)F)c(OC(F)(F)C(F)(F)C(F)(F)F)c1-n1cc(-c2ccc(Cl)c(C(=O)NC3(C#N)CC3)c2)cn1 [Compound 40]
≥ 80%: [1] | [2] | [4] | [7] | [6]

Cn1nc(C(F)(F)C(F)(F)F)c(OC(F)F)c1-n1cc(-c2ccc(Cl)c(C(=O)NC3CC3)c2)cn1 [Compound 2, 2-Chloro-N-cyclopropyl-5-[1-[4-(difluoromethoxy)-2-methyl-5-(1,1,2,2,2-pentafluoroethyl)-pyrazol-3-yl]pyrazol-4-yl]benzamide]
≥ 80%: [1]; [8] | [2]; [9] | [3] | [4]; [10] | [5] | [6]; [11]

Cn1nc(C(F)(F)C(F)(F)F)c(OC(F)F)c1-n1cc(-c2ccc(Cl)c(C(=O)NC3(C#N)CC3)c2)cn1 [Compound 1, 2-chloro-N-(1-cyanocyclopropyl)-5-[1-[4-(difluoromethoxy)-2-methyl-5-(1,1,2,2,2-pentafluoroethyl)pyrazol-3-yl]pyrazol-4-yl]benzamide]
≥ 80%: [1]; [8] | [2]; [9] | [3] | [4]; [10] | [5] | [6]; [11]

Cn1nc(C(F)(F)C(F)(F)F)c(OCC(F)F)c1-n1cc(-c2ccc(Cl)c(C(=O)NC3CC3)c2)cn1 [Compound 44]
≥ 80%: [1]; [8] | [2]; [9] | [3] | [6]; [11]

Cn1nc(C(F)(F)C(F)(F)F)c(S(=O)(=O)C2CC2)c1-n1cc(-c2ccc(Cl)c(C(=O)NC3CC3)c2)cn1 [Compound 33]
≥ 80%: [1]; [8] | [2]; [9] | [3] | [4]; [10] | [7]; [12] | [6]; [11]

CN(C(=O)c1cc(-c2cnn(-c3c(OC(F)F)c(C(F)(F)C(F)(F)F)nn3C)c2)ccc1C#N)C1CC1 [Compound 59]
≥ 80%: [6]; [11]

Cn1nc(C(F)(F)C(F)(F)F)c(OC(F)F)c1-n1cc(-c2ccc(C#N)c(C(=O)NC3CC3)c2)cn1 [Compound 62]
≥ 80%: [6]; [11]

Cn1nc(C(F)(F)C(F)(F)F)c(OC(F)F)c1-n1cc(-c2cc(C(=O)NC3CC3)c(Cl)cc2F)cn1 [Compound 47]
≥ 80%: [1]; [8]

Cn1nc(C(F)(F)C(F)(F)F)c(OCC(F)F)c1-n1cc(-c2ccc(Cl)c(C(=O)NC3(C#N)CC3)c2)cn1 [Compound 39]
≥ 80%: [1]; [8] | [2]; [9] | [3] | [4]; [10] | [6]; [11]

CCN(C(=O)c1cc(-c2cnn(-c3c(OC(F)F)c(C(F)(F)C(F)(F)F)nn3C)c2)ccc1C#N)C1CC1 [Compound 58]
≥ 80%: [6]; [11]

Cn1nc(C(F)(F)C(F)(F)F)c(OC(F)(F)C(F)(F)C(F)(F)F)c1-n1cc(-c2ccc(Cl)c(C(=O)NC3CC3)c2)cn1 [Compound 45]
≥ 80%: [1] | [2] | [7] | [6]
